The values that follow come from ChEMBL document CHEMBL2074086, “Cloning, in vitro expression, and tissue distribution of a human prostaglandin transporter cDNA(hPGT)” (J Clin Invest, 1996).

The target of the data set is Solute carrier organic anion transporter family member 2A1 (Homo sapiens, UniProt Q92959). Nature of the data set: TP_TRANSPORTER: uptake in PGT-expressing HeLa cells. Type of data set: functional, cell-based.

Molecule `CCCCC[C@H](O)/C=C/[C@H]1[C@H](O)CC(=O)[C@@H]1CCCCCCC(=O)O` [ALPROSTADIL] returned a K1/2 of 0.082 µM.

In the case of `CCCCC[C@H](O)/C=C/[C@H]1[C@H](O)CC(=O)[C@@H]1C/C=C\CCCC(=O)O` [DINOPROSTONE], the K1/2 came to 0.1 µM.

For the molecule `CCCCC[C@H](O)/C=C/[C@@H]1[C@@H](C/C=C\CCCC(=O)O)[C@@H](O)C[C@H]1O` [DINOPROST], the K1/2 is 0.092 µM.

With `CC#CCC(C)[C@H](O)/C=C/[C@@H]1[C@H]2C/C(=C/CCCC(=O)O)C[C@H]2C[C@H]1O` (stereo partly specified) [ILOPROST], the Activity result was “is not a substrate [-]”.

Consider `CCCCC[C@H](O)/C=C/[C@H]1C(=O)C[C@H](O)[C@@H]1C/C=C\CCCC(=O)O` [PROSTAGLANDIN D2], for which the K1/2 turned out to be 0.083 µM.

The molecule `CCCCC[C@H](O)/C=C/[C@H]1OC(O)C[C@H](O)[C@@H]1C/C=C\CCCC(=O)O` (stereo partly specified) [THROMBOXANE B2] gave a K1/2 of 0.182 µM.
